Key:
[1] = target: T1, CSF1R (Homo sapiens, UniProt P07333); assay: Enzyme inhibitory activity (Kd), Reaction Biology Co.; assay type: binding
T1 construct: purchased Reaction Biology Co

[2] = target: T2, FGFR4 (Homo sapiens, UniProt P22455); assay: as above; assay type: binding
T2 construct: purchased Reaction Biology Co

[3] = target: T3, JAK2(JH1domain-catalytic) (Homo sapiens, UniProt O60674); assay: as above; assay type: binding
T3 construct: JAK2 (JH1domain-catalytic); purchased Reaction Biology Co
T3 sequence (O60674 849-1124 limits assumed): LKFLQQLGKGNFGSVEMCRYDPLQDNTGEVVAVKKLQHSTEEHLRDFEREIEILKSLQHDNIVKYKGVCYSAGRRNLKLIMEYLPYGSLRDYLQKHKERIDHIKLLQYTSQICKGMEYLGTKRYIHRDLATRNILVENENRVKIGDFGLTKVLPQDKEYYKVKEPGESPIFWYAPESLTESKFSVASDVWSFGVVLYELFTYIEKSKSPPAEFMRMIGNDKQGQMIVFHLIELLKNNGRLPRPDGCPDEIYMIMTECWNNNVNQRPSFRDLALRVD

[4] = target: T4, LOK (Homo sapiens, UniProt O94804); assay: as above; assay type: binding
T4 construct: purchased Reaction Biology Co
T4 sequence (O94804 whole entry): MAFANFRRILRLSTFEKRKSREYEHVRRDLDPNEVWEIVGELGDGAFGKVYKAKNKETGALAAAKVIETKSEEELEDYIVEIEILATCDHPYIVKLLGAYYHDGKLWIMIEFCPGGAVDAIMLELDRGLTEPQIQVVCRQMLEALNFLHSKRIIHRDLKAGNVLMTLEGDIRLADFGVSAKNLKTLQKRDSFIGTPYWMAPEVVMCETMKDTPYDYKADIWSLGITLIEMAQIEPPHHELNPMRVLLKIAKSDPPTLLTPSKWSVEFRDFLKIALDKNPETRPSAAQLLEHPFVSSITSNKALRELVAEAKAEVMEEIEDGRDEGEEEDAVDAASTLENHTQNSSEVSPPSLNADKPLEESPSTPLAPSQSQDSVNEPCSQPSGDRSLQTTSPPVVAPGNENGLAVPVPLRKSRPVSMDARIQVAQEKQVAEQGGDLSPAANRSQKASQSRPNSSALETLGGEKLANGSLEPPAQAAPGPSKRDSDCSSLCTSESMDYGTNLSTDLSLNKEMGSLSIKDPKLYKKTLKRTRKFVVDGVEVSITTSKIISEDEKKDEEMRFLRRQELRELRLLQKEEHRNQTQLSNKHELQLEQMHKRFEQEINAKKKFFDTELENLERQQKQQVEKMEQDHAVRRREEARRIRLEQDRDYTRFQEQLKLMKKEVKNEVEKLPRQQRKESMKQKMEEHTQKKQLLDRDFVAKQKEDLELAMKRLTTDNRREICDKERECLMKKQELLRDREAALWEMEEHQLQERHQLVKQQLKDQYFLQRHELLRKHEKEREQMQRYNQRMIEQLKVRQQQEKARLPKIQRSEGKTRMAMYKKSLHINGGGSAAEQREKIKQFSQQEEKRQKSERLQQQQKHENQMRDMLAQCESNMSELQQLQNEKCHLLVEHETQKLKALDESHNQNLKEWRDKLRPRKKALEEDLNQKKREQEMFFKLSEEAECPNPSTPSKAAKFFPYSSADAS

[5] = target: T5, RET (Homo sapiens, UniProt P07949); assay: as above; assay type: binding
T5 construct: purchased Reaction Biology Co
T5 sequence (P07949 29-1114): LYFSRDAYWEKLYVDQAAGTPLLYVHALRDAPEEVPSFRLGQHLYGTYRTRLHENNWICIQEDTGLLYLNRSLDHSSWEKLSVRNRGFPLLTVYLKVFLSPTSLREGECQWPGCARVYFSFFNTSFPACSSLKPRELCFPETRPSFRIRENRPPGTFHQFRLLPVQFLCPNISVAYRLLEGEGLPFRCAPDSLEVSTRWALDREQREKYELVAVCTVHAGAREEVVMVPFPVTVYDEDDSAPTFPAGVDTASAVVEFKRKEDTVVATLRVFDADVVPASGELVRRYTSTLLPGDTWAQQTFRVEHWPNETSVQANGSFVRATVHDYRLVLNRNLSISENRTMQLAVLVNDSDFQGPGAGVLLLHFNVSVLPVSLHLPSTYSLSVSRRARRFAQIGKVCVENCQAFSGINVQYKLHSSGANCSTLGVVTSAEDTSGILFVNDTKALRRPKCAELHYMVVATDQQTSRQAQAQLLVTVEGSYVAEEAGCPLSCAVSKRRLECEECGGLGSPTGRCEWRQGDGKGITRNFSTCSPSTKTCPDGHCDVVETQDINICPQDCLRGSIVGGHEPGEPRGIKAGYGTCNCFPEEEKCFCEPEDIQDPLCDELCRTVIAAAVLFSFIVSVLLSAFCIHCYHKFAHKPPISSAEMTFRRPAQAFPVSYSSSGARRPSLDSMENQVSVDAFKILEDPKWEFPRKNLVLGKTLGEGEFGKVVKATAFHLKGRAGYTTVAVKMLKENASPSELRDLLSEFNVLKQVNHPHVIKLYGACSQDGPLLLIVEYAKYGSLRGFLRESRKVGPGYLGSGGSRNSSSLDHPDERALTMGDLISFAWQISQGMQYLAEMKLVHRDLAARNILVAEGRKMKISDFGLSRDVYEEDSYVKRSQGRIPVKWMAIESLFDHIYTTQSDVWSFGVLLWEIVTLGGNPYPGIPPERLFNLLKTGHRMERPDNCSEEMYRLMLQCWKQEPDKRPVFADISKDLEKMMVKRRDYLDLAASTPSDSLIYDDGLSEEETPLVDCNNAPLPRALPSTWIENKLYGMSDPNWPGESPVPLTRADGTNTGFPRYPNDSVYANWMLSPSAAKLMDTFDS

[6] = target: T6, RET(V804M) (Homo sapiens, UniProt P07949, V804M); assay: as above; assay type: binding
T6 construct: purchased Reaction Biology Co
T6 sequence (P07949 29-1114 V804M): as the sequence (P07949 29-1114) above, with V776M counted along it

[7] = tested on: FYN (MCP-1); assay: Cancer cell proliferation inhibition, MTS assay, 72 hours; assay type: cell-based
Summary of the method: (§1)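 3,000 cells/well, 24 h pre-culture (37° C, 5% CO2); serial dilution of compound, top 50 μM, DMSO 0.05% v/v; 72 h exposure; MTS/PMS 2 h, OD450. IC50 = concentration giving 50% inhibition relative to DMSO control, n = 3 data sets.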

[8] = tested on: Huh7; assay: as above; assay type: cell-based; settings: Homo sapiens, Huh-7
Summary of the method: as §1

[9] = tested on: RET (LC2/ad-CDC6); assay: as above; assay type: cell-based; settings: 72 h
Summary of the method: as §1

[10] = tested on: Ret^Parental (Ba/F3); assay: as above; assay type: cell-based; settings: Mus musculus, BaF3
Summary of the method: as §1

[11] = target: T7, Ret^V804M (Ba/F3) (Homo sapiens, UniProt P07949, V804M, cells depend on it, form not given); assay: as above; assay type: cell-based; settings: read-out: Ret^V804M (Ba/F3) IC50
T7 construct: candidates are KIF5B, CCDC6, TEL (ETV6), or none (full-length RET)
T7 sequence (P07949 whole entry V804M, form open): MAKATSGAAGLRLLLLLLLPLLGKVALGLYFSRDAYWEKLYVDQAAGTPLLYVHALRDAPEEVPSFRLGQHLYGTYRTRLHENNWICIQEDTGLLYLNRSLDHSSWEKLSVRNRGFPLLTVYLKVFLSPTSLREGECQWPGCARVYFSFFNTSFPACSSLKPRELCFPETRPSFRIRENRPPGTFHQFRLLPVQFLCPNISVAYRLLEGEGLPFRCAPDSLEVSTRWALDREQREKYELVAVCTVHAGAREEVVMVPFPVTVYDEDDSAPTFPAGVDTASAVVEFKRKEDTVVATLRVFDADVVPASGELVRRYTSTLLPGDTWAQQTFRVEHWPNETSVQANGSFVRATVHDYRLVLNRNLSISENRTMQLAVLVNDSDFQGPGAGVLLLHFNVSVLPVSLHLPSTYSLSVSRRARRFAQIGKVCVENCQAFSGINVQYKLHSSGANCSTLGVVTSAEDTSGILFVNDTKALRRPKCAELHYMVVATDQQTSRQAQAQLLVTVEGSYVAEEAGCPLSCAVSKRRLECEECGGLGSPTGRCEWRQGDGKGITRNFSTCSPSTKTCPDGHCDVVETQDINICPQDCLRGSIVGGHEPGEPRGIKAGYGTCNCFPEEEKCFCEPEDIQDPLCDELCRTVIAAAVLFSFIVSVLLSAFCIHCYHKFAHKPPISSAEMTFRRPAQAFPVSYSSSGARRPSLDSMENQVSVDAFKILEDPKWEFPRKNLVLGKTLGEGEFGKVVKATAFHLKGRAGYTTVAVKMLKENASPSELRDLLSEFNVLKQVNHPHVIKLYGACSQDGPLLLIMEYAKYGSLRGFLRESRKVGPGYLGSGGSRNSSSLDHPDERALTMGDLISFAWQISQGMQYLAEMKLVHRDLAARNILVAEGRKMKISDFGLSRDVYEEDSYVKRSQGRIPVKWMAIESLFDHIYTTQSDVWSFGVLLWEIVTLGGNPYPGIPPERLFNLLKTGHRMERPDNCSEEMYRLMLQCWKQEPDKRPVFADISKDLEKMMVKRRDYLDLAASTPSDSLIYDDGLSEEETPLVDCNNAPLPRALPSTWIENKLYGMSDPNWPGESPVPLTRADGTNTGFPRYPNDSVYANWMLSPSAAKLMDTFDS
Summary of the method: as §1

[12] = target: T8, Ret^wt (Ba/F3) (Homo sapiens, UniProt P07949); assay: as above; assay type: cell-based; settings: read-out: Ret^wt (Ba/F3) IC50
T8 construct: candidates are KIF5B, CCDC6, TEL (ETV6), or none (full-length RET)
T8 sequence (P07949 whole entry, change not shown): as the sequence (P07949 whole entry V804M, form open) above, with M804V counted along it
Summary of the method: as §1

[13] = tested on: SK-MEL-28; assay: as above; assay type: cell-based; settings: Homo sapiens
Summary of the method: as §1

[14] = target: T9, BLK (Homo sapiens, UniProt P51451); assay: Enzyme inhibitory activity (Kd), Reaction Biology Co.; assay type: binding
T9 construct: purchased Reaction Biology Co
T9 sequence (P51451 whole entry): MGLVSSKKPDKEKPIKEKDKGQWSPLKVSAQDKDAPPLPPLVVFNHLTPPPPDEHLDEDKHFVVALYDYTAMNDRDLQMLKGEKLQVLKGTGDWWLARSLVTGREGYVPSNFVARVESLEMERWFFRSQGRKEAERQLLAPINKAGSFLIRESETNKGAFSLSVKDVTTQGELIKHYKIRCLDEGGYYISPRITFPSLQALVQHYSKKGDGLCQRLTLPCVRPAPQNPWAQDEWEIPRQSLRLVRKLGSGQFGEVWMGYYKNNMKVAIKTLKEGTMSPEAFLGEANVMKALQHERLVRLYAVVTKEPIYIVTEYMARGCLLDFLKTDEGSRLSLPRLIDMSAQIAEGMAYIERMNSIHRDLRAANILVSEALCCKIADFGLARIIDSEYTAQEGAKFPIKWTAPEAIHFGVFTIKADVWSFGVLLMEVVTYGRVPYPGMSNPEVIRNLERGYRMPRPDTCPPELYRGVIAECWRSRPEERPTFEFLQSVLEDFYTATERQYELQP

[15] = target: T10, LCK (Homo sapiens, UniProt P06239); assay: as above; assay type: binding
T10 construct: purchased Reaction Biology Co

[16] = tested on: FYN (FN); assay: Cancer cell proliferation inhibition, MTS assay, 72 hours; assay type: cell-based
Summary of the method: as §1

[17] = tested on: STZ diabetes induced white mice; assay: Diabetes (streptozotocin) induced white mice; assay type: in vivo, SD rats; settings: STZ + Example 11 (30 mg/kg), 8 weeks; Mean ± SE
Description: Blood was collected with a heparinized syringe before sacrificing the experimental animals. HbA1c was measured by using a DCA2000 HbA1c reagent kit (SIEMENS Healthcare Diagnostics, Inc., Tarrytown, N.Y., USA) and blood sugar was measured by using a glucometer (OneTouch Ultra, Johnson & Johnson co., CA, USA). The blood sample obtained above was centrifuged at 3000 rpm at 4° C. for 15 minutes to obtain serum. Serum cystatin C was measured by using an ELISA kit (R&D Systems, Minneapolis, Minn., USA). […]
Male SD white mice at 6-7 weeks of age (Japan SLC Inc., Hamamatsu, Japan) were used. Streptozotocin (STZ, 60 mg/kg, intraperitoneally administered) was administered to the experimental animals to induce type I diabetes. The STZ non-treated control group was treated with sodium citrate buffer (sodium citrate 100 mM, citric acid 100 mM, pH 4.5). To investigate the therapeutic effect of the compound of example 11, the compound was orally administered to the experimental animals for 8 weeks from the beginning of diabetes induction. The effect was compared with that of losartan (1 mg/kg/d) that is an angiotensin receptor antagonist being used clinically as a drug to treat diabetic nephropathy. The diabetic control (treated with STZ alone) was administered with the solvent of Example 11, DMSO/Tween 70.DW (10:5:85).
Table 8 below presents the body weight, kidney weight, ratio of kidney to body weight, HbA1C, blood sugar and urine amount (volume) of the mice of each group, which were measured 8 weeks after the treatment of control (non-treated with STZ), STZ, STZ+compound of Example 11 (30 mg/kg) and STZ+losartan (1 mg/kg).

T2 sequence (P22455 22-802): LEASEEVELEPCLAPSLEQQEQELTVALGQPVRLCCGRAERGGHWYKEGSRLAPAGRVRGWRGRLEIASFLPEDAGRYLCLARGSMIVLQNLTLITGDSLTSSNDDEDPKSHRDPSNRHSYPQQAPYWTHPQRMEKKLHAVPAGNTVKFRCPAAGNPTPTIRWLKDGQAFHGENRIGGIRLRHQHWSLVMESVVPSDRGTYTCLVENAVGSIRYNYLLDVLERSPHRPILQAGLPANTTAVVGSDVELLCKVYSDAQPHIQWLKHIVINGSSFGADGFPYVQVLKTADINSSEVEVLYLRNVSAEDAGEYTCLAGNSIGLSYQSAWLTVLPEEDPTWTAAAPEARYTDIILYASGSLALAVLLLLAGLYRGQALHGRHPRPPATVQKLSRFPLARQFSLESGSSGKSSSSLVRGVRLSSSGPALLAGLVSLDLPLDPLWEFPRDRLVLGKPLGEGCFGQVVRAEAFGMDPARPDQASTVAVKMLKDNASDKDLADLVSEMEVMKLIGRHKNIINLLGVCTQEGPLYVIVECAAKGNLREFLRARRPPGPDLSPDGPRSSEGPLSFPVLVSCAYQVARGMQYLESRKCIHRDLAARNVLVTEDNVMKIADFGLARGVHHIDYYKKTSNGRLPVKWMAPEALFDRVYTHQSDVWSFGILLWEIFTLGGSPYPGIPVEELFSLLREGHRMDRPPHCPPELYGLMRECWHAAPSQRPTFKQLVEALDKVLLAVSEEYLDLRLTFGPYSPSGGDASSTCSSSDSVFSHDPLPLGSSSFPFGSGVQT

Row | IC50 [16] | Compound | Kd [1] | Kd [2] | Kd [3] | Kd [4] | Kd [5] | Kd [6] | IC50 [7] | IC50 [8] | IC50 [9] | IC50 [10] | GI50 [11] | GI50 [12] | IC50 [13] | also measured
1 |  | Cc1ccc(C(=O)Nc2ccc(CN3CCN(C)CC3)c(C(F)(F)F)c2)cc1C#Cc1cnc2c(Nc3cnn(C)c3)cccn12 [Example 1, 4-methyl-3-((8-((1-methyl-1H-pyrazol-4-yl)amino)imidazo[1,2-a]pyridin-3-yl)ethynyl)-N-(4-((4-methylpiperazin-1-yl)methyl)-3-(trifluoromethyl)phenyl)benzamide] | 34 nM | 56 nM | 220 nM | 7.3 nM | 10 nM | 11 nM | 730 nM | 65 nM | < 10 nM | 1210 nM | 5 nM | 3 nM | 334 nM | 
2 | < 1000 nM | CCN1CCN(Cc2ccc(NC(=O)c3ccc(C)c(C#Cc4cnc5c(Nc6cnn(C)c6)cccn45)c3)cc2C(F)(F)F)CC1 [Example 8, N-(4-((4-ethylpiperazin-1-yl)methyl)-3-(trifluoromethyl)phenyl)-4-methyl-3-((8-((1-methyl-1H-pyrazol-4-yl)amino)imidazo[1,2-a]pyridin-3-yl)ethynyl)benzamide] |  | 57 nM | 270 nM |  | 7.5 nM | 9.1 nM | < 1000 nM | 255 nM |  | 1320 nM | 10 nM | 2 nM | 586 nM | Kd [14]: 5 nM; Kd [15]: 6.4 nM
3 | < 100 nM | Cc1ccc(C(=O)Nc2cccc(C(F)(F)F)c2)cc1C#Cc1cnc2c(Nc3cnn(C4CCNCC4)c3)cccn12 [Example 11, 4-methyl-3-((8-((1-(piperidin-4-yl)-1H-pyrazol-4-yl)amino)imidazo[1,2-a]pyridin-3-yl)ethynyl)-N-(3-(trifluoromethyl)phenyl)benzamide] |  |  |  |  |  |  | < 100 nM | 1220 nM |  | 2400 nM | 98 nM | 5 nM | 1460 nM | HbA1C [17]: 6.7 ± 0.2 %; Kidney [17]: 1.6 ± 0.1 g; Urine volume [17]: 93.0 ± 12.5; Weight [17]: 241 ± 16.0 g; blood sugar [17]: 392 ± 33 mg/dL; kidney/Weight ratio [17]: 0.7 ± 0.04
4 |  | Cc1ccc(NC(=O)C2(C(=O)Nc3ccc(F)cc3)CC2)cc1C#Cc1cnc2c(Nc3cnn(C(C)C)c3)cccn12 [Example 78] | 440 nM |  |  | 37 nM |  |  |  | 5120 nM | < 10000 nM |  |  |  | 4550 nM | 

Row | Compound | IC50 [16] | Kd [1] | Kd [2] | Kd [3] | Kd [4] | Kd [5] | Kd [6] | IC50 [7] | IC50 [8] | IC50 [9] | IC50 [10] | GI50 [11] | GI50 [12] | IC50 [13] | also measured
5 | Cc1cn(-c2cc(NC(=O)c3ccc(C)c(C#Cc4cnc5c(Nc6cnn(C)c6)cccn45)c3)cc(C(F)(F)F)c2)cn1 [Example 12, 4-methyl-N-(3-(4-methyl-1H-imidazol-1-yl)-5-(trifluoromethyl)phenyl)-3-((8-((1-methyl-1H-pyrazol-4-yl)amino)imidazo[1,2-a]pyridin-3-yl)ethynyl)benzamide] | < 100 nM |  | 370 nM |  |  | 25 nM | 32 nM | < 100 nM | 147 nM | < 100 nM |  | 54 nM | 17 nM | > 10000 nM | 

Reference: patent US10870647B2, “Imidazopyridine derivative, method for preparing same, and pharmaceutical composition containing same as active ingredient for preventing or treating cancer” (DAEGU-GYEONGBUK MEDICAL INNOVATION FOUNDATION, priority 2016, dated 2020)
